In patent publication US20250114342A1, “APIXABAN ORAL LIQUID DOSAGE FORMS” (Shilpa Medicare Limited, priority 2023, published 2025):
Read-outs that look alike come from different tables or passages of the source.

Assays:
[1] = Drug-excipients compatibility study (thermal stability); assay type: physicochemical
Protocol: Amounts of apixaban and other components identified here were determined chromatographically, e.g., High Performance Liquid Chromatograph (HPLC). Amounts of apixaban related substances identified here were also determined chromatographically, e.g., High Performance Liquid Chromatograph (HPLC).

[2] = cited from earlier work

For COc1ccc(-n2nc(C(N)=O)c3c2C(=O)N(c2ccc(N4CCCCC4=O)cc2)CC3)cc1 [apixaban, 1-(4-methoxyphenyl)-7-oxo-6-[4-(2-oxopiperidin-1-yl)phenyl]-4,5,6,7-tetrahydro-1H-pyrazolo[3,4-c]pyridine-3-carboxamide], the “Any individual unspecified impurity” value ([1]; 15 Days 60° C. Close Vial) was 0.03 % w/w, the “Related substances: Acid Impurity” value ([1]; 15 Days 60° C. Close Vial) was 0.02 % w/w and the Total impurities ([1]; 15 Days 60° C. Close Vial) was 0.07 % w/w. The “Any individual unspecified impurity” value ([1]; 30 Days 25° C. Close Vial) was 0.03 % w/w, the “Related substances: Acid Impurity” value ([1]; 30 Days 25° C. Close Vial) was 0.01 % w/w and the Total impurities ([1]; 30 Days 25° C. Close Vial) was 0.07 % w/w. For the same compound, the “Any individual unspecified impurity” value ([1]; 30 Days 25° C. Open Vial) was 0.02 % w/w, the “Related substances: Acid Impurity” value ([1]; 30 Days 25° C. Open Vial) was 0.02 % w/w and the Total impurities ([1]; 30 Days 25° C. Open Vial) was 0.07 % w/w. The “Any individual unspecified impurity” value ([1]; 30 Days 40° C. Close Vial) was 0.03 % w/w, the “Related substances: Acid Impurity” value ([1]; 30 Days 40° C. Close Vial) was 0.02 % w/w and the Total impurities ([1]; 30 Days 40° C. Close Vial) was 0.09 % w/w. The “Any individual unspecified impurity” value ([1]; 30 Days 40° C. Open Vial) was 0.03 % w/w, the “Related substances: Acid Impurity” value ([1]; 30 Days 40° C. Open Vial) was 0.02 % w/w and the Total impurities ([1]; 30 Days 40° C. Open Vial) was 0.09 % w/w. For the same compound, the “Any individual unspecified impurity” value ([1]; Initial) was 0.02 % w/w, the “Related substances: Acid Impurity” value ([1]; Initial) was 0.01 % w/w and the Total impurities ([1]; Initial) was 0.06 % w/w. The solubility ([2]; 2 mg of apixaban, 100% propylene glycol, 20° C.) was “partially soluble”, the solubility ([2]; higher amount of apixaban, 40% propylene glycol+60% glycerol, 20° C.) was “insoluble” and the solubility ([2]; higher amount of apixaban, 40% propylene glycol+60% glycerol, 40° C.) was “gets dissolved”.
